{"source": "patent US20100273733A1", "about": "“HIV Treatment” (priority 2009, published 2010)", "key": {"[1]": {"test_system": "Jurkat (T-lymphocyte) cells", "test": "Selective toxicity, cell viability by MTT or XTT, uninfected control cells", "format": "cell-based", "protocol": "For purposes of the following experiments and unless otherwise specified, the standard DEAE/Dex concentration is about 6.0 to about 6.9 molar DEAE/0.1 molar Dex.\nSelective Toxicity. Wells with 10^6 Jurkat (T-lymphocyte) cells were infected with HIV at Multiplicities of Infection (MOI—the number of viral particles vs. infectable cells) of 0.1 or 0.01 for 4 hours. The cells are treated with Dex, DEAE, DEAE/DEX or control for 48 hours. Cell viability was assayed by MTT or XTT method. In the control (uninfected) cells, standard concentrations of Dex, DEAE and DEAE/Dex are non-toxic (within standard deviation)."}, "HIV": {"test_system": "HIV", "test": "HIV replication in JC53 cells, viral core antigen P24 antibody kit", "format": "cell-based", "conditions": "Dex alone from greater or equal to 0.1 μmolar, effect topped out", "protocol": "In another experiment, JC53 cells (HeLa cancer cells engineered to express CD4 and CCR5 receptors for HIV) are treated with HIV and the relevant agents to determine if DEAE inhibit HIV replication, using commercial antibody kit for viral core antigen P24 to assess level of virus production. […] The virus appears able to propagate and infect other cells. Dex alone indicated a 50% HIV activity inhibition from greater or equal to 0.1 μmolar. […] Similarly, 0.02 μmolar AZT alone has 40% inhibition of HIV replication."}}, "data": [{"smiles": "C[C@@H]1C[C@H]2[C@@H]3CCC4=CC(=O)C=C[C@]4(C)[C@@]3(F)[C@@H](O)C[C@]2(C)[C@@]1(O)C(=O)CO", "note": "[Dex, dexamethasone]", "values": [{"measurement": "toxicity (cell viability)", "setting": "[1]", "result": "non-toxic"}, {"measurement": "HIV activity inhibition", "setting": "HIV", "result": 50, "unit": "%"}]}]}
